According to patent US20100105730A1 (H. Lundbeck A/S, priority 2007, published 2010):
Read-outs that look alike come from different tables or passages of the source.

How the values were obtained:
[1] = target: T1, SERT (Rattus norvegicus, UniProt P31652); assay: Serotonin (5-HT) reuptake inhibition, rat cortical synaptosomes; assay type: biochemical; conditions: rat cortical synaptosome preparation
T1 construct: rat cortical synaptosome preparation; from tissue; host or cells: rat cortical synaptosomes
Protocol: (§1) Non-specific uptake was determined in the presence of 10 μM talsupram or citalopram and the total uptake was determined in the presence of buffer. Aliquots were incubated for 15 minutes at 37° C. […] Filters were washed and counted in a Wallac MicroBeta counter.

[2] = target: T2, NET (Rattus norvegicus, UniProt Q63380); assay: Norepinephrine (NE) reuptake inhibition, rat cortical synaptosomes; assay type: biochemical; conditions: rat cortical synaptosome preparation; read-out: IC50 at NET ([3H]NE uptake)
T2 construct: rat cortical synaptosome preparation; from tissue; host or cells: rat cortical synaptosomes
Protocol: as §1

[3] = target: T3, human-homomeric 5-HT3A receptors (Homo sapiens, UniProt P46098); assay: Electrophysiology in oocytes expressing human-homomeric 5-HT3A receptors; assay type: cell-based
T3 sequence (P46098 24-478): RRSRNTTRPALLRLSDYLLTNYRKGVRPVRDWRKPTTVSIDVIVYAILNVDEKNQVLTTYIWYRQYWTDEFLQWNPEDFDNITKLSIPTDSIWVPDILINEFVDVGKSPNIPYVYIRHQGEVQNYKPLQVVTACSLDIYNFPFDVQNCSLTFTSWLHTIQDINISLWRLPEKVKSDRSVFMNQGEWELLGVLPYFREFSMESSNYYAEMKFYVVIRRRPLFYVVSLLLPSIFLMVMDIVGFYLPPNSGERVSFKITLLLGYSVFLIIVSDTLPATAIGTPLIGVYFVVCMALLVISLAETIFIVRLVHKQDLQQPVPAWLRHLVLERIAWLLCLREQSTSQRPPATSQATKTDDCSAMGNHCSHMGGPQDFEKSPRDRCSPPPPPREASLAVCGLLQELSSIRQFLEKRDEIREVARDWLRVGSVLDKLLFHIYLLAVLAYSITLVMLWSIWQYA
Protocol: The experiments were carried out as follows. […] Oocytes avoid of the follicle layer were selected and incubated for 24 hours in Modified Barth's Saline buffer [88 mM NaCl, 1 mM KCl, 15 mM HEPES, 2.4 mM NaHCO3, 0.41 mM CaCl2, 0.82 mM MgSO4, 0.3 mM Ca(NO3)2] supplemented with 2 mM sodium pyruvate, 0.1 U/l penicillin and 0.1 μg/l streptomycin. Stage […] oocytes were identified and injected with 12-48 nl of nuclease free water containing 14-50 pg of cRNA coding for human 5-HT3A receptors receptors and incubated at 18° C. until they were used for electrophysiological recordings (1-7 days after injection). […] Cells were impaled with agar plugged 0.5-1 MΩ electrodes containing 3 M KCl and voltage clamped at −90 mV by a GeneClamp 500B amplifier. The oocytes were continuously perfused with Ringer buffer and the drugs were applied in the perfusate.

[4] = target: T4, α1A receptor (Homo sapiens, UniProt P35348); assay: α1A receptor affinity, [3H]-Prazosin binding to membranes; conditions: Ki by Cheng Prusoff, read-out: Ki, affinity for α1A receptors
T4 sequence (P35348 1-466): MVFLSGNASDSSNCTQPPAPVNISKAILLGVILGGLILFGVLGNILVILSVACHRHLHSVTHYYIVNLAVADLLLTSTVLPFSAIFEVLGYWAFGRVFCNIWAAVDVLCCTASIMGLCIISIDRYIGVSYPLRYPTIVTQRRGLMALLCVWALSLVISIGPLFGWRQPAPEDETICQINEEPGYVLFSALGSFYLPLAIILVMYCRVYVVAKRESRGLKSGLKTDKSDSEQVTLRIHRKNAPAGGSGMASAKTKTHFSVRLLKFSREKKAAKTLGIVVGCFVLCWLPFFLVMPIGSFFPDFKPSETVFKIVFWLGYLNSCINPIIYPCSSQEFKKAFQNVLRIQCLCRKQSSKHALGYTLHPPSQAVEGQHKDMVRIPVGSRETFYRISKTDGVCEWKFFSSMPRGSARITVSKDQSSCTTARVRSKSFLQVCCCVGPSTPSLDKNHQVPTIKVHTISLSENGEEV
Protocol: On the day of the experiments membranes (see below for description of membrane preparation) are thawed and homogenized in buffer using an ultra turrax and diluted to the desired concentration (5 μg/well˜5/900 μl, store on ice until use). The experiment is initiated by mixing of 50 μl test compound, 50 μl [^3H]-Prazosin and […], and the mixture is incubated for 20 minutes at 25° C. Non-specific binding is determined in the presence of 10 μM WB-4101 and the total binding is determined in the presence of buffer. After the incubation, bound ligand is separated from unbound by filtration through Unifilter GF/B, presoaked in 0.1% PEI for 30 minutes, using a Tomtec Cell Harvester program (D4.2..4). 96 well. Filters are washed 3 times with 1 ml ice-cold buffer, dried at 50° C. and 35 μl scintillation liquid/well is added to the filters. Bound radioactivity is counted in a Wallac OY 1450 MicroBeta. […] Concentrations of compound covering 2 decades were used to calculate the IC50 value.

[5] = test system: extracellular levels of acetylcholine in the prefrontal cortex and ventral hippocampus; assay: Microdialysis, extracellular acetylcholine levels in freely-moving rats; assay type: in vivo, rat; conditions: FIGS. 1a and 1b
Protocol: Male Sprague-Dawley rats, initially weighing 275-300 g, were used. The animals were housed under a 12-hr light/dark cycle under controlled conditions for regular in-door temperature (21±2° C.) and humidity (55±5%) with food and tap water available ad libitum.
Rats were anaesthetised with hypnorm/dormicum (2 ml/kg) and intracerebral guide cannulas (CMA/12) were stereotaxically implanted into the hippocampus, aiming to position the dialysis probe tip in the ventral hippocampus (co-ordinates: 5.6 mm posterior to bregma, lateral—5.0 mm, 7.0 mm ventral to dura or in the frontal cortex (co-ordinates: 3.2 mm anterior to bregma; lateral, 0.8 mm; 4.0 mm ventral to dura). Anchor screws and acrylic cement were used for fixation of the guide cannulas. The body temperature of the animals was monitored by rectal probe and maintained at 37° C. The rats were allowed to recover from surgery for 2 days, housed singly in cages. […]
Concentration of acetylcholine (ACh) in the dialysates was analysed by means of HPLC with electrochemical detection using a mobile phase consisting of 100 mM disodium hydrogenphosphate, 2.0 mM octane sulfonic acid, 0.5 mM tetramethylammonium chloride and 0.005% MB (ESA), pH 8.0. […] The latter was detected electrochemical by using a platinum electrode (Analytical cell: ESA, model 5040). […]

[6] = test system: extracellular dopamine (DA) levels in the rat frontal cortex; assay: Microdialysis, extracellular dopamine levels in rat frontal cortex; assay type: in vivo; conditions: single injection
Protocol: Male Sprague-Dawley rats, initially weighing 275-300 g, were used. The animals were housed under a 12-hr light/dark cycle under controlled conditions for regular in-door temperature (21±2° C.) and humidity (55±5%) with food and tap water available ad libitum. For the three-day treatment experiments osmotic minipumps (Alzet, 2ML1) were used. The pumps were filled under aseptic conditions and implanted subcutaneously under sevoflurance anaesthesia. The experiments were carried out with the minipumps on board. Blood samples for measuring plasma levels of the test compound after 3 days of treatment were collected at the end of the experiments. Animals were anaesthetised with hypnorm/dormicum (2 ml/kg) and intracerebral guide cannulas (CMA/12) were stereotaxically implanted into the hippocampus, positioning the dialysis probe tip in the ventral hippocampus (co-ordinates: 5.6 mm […] to bregma, lateral—5.0 mm, 7.0 mm ventral to dura or in the frontal cortex (co-ordinates: 3.2 mm anterior to bregma; lateral, 3.0 mm; 4.0 mm ventral to dura). Anchor screws and acrylic cement were sued for fixation of the guide cannulas. The body temperature of the animals was monitored by rectal probe and maintained at 37° C. The rats were allowed to recover from surgery for 2 days, housed singly in cages. […]

[7] = test system: formalin model of neuropathic pain; assay: Formalin model of neuropathic pain in mice; assay type: in vivo, C57/B6 mice
Protocol: The irritation caused by the formalin injection elicits a characteristic biphasic behavioural response, as quantified by the amount of time spent licking the injured paw. The first phase (—O—10 minutes) represents direct chemical irritation and nociception, whereas the second (−20-30 minutes) is thought to represent pain of neuropathic origin. The two phases are separated by a quiescent period in which behaviour returns to normal. Measuring the amount of time spent licking the injured paw in the two phases assesses the effectiveness of test compounds to reduce the painful stimuli. Eight C57/B6 mice (ca. 25 g) were tested per group. […] The amount of compound administered is calculated as the free base.

[8] = target: T5, 5-HT2A receptors (Homo sapiens, UniProt P28223); assay: 5-HT2A receptor affinity (MDL Pharmaservices catalogue number 271650); assay type: binding; set-up: purchased MDL Pharmaservices 271650
[9] = target: T5, 5-HT2A receptors; assay: Binding to human 5-HT2A receptors expressed in mammalian cells; set-up: expressed in transfected cells; host or cells: CHO cells; conditions: mammalian cells expressing human 5-HT2A receptors
[10] = target: T5, 5-HT2A receptors; assay: Antagonism of 5-HT evoked Ca2+ release in CHO cells expressing human 5-HT2A receptors (FLIPR); assay type: cell-based; set-up: expressed in transfected cells; host or cells: CHO cells
Protocol: The experiment was carried out as follows. 2 or 3 days before the experiment CHO cells expressing 250 fmol/mg human 5-HT2A receptors are plated at a density sufficient to yield a mono-confluent layer on the day of the experiment. The cells are dye loaded (Ca^2+-kit from Molecular Devices) for 60 minutes at 37° C. in a 5% CO2 incubator at 95% humidity. Basal fluorescence was monitored in a fluorometric imaging plate reader or FLIPR^384 from Molecular Devices (Sunnyvale, Calif.) with an excitation wavelength of 488 nm and an emission range of 500 to 560 nm. […] The variation in basal fluorescence should be less than 10%. […] IC; values were calculated using Cheng-Prusoff equation.

T5 sequence (P28223 whole entry): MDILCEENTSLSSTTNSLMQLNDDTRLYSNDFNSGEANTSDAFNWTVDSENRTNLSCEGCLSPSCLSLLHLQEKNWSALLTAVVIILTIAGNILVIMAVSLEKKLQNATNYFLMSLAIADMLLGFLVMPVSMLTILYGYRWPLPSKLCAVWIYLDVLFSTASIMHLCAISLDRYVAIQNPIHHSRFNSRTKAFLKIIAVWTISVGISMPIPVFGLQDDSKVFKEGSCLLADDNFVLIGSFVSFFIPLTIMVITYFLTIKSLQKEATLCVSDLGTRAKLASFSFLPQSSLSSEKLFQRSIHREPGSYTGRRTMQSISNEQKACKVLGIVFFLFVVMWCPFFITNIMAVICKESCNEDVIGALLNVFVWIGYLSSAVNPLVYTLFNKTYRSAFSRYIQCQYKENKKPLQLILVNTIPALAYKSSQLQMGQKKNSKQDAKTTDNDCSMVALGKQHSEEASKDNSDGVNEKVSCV
T2 sequence (Q63380 1-617): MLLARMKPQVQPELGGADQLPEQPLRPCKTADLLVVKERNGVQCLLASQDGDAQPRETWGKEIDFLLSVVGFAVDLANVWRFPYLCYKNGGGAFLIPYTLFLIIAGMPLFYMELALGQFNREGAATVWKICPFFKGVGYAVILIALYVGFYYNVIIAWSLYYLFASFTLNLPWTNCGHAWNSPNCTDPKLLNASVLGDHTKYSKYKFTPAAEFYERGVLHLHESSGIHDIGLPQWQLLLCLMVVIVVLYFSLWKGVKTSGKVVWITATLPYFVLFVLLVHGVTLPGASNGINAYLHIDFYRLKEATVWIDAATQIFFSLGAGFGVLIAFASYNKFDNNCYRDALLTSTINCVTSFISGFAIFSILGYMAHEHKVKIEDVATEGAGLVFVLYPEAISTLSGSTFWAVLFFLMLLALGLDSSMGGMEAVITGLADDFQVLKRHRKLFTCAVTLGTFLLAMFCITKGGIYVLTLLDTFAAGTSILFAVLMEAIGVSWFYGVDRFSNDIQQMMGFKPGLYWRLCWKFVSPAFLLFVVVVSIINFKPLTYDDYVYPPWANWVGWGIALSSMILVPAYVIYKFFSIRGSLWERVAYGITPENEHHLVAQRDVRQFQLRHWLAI
T1 sequence (P31652 whole entry): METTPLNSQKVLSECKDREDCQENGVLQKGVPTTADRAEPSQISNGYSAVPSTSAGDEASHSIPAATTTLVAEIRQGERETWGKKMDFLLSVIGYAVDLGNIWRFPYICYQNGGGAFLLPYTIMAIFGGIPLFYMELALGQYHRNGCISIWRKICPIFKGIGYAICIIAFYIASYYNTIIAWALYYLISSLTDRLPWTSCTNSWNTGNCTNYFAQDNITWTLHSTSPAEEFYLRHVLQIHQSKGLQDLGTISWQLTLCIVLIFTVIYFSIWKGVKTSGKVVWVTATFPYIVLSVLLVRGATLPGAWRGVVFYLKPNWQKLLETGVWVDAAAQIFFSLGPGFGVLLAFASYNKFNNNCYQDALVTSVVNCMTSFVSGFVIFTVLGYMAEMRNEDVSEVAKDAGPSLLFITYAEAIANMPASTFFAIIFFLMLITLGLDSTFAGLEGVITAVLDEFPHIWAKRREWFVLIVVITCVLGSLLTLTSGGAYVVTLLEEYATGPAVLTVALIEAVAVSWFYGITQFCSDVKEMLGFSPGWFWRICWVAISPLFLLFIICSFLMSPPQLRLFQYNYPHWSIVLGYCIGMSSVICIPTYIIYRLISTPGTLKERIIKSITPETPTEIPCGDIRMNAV

Cc1ccc(Sc2ccccc2C2CCNCC2)cc1 [compound I, 4-[2-(4-methylphenylsulfanyl)phenyl]piperidine]
IC50 [1]: 8 nM | IC50 [2]: 23 nM | Kb ([3]; 0.1 nM-100 nM, read-out: Kb, antagonism in low concentrations): ~2 nM | EC50 ([3]; 100-100000 nM, read-out: EC50, agonistic properties in higher concentrations): ~2600 nM | maximal current, % of the maximal current elicited by 5-HT itself ([3]; agonism at higher concentrations (100-100000 nM)): 70-80% | IC50 ([3]; read-out: IC50, antagonism in low concentrations): ~10 nM | Ki [4]: 34 nM | extra-cellular acetylcholine levels in the brain [5]: dose dependent increase | enhancement of DA levels above baseline levels ([6]; 8.9 mg/kg s.c.): approximately 100% | enhancement of DA levels above baseline levels ([6]; 18 mg/kg s.c.): ~150% | time spent licking the injured paw, 0-5 minutes ([7]; 1.0 mg/kg, first phase): 37 s | time spent licking the injured paw, 20-30 minutes ([7]; 1.0 mg/kg, second phase): 43 s | time spent licking the injured paw, 0-5 minutes ([7]; 10 mg/kg, first phase): 37 s | effect in the first phase (direct chemical irritation and nociception) ([7]; first phase, in words): little effect | time spent licking paws in the second phase ([7]; second phase, in words): clear and dose dependent decrease | Ki [8]: 54 nM | Ki [9]: < 100 nM | Kb ([10]; Kb, antagonism of 5-HT evoked release of Ca2+ from intracellular stores, functional assay): 67 nM | Kb ([10]; schild analysis, read-out: Kb, schild analysis (competitive antagonism)): 100 nM
